Laboratory results taken from US6369052B1, “Combination of huperzine and nicotinic compounds as a neuroprotective agent” (Georgetown University, priority 2000, dated 2002).
Read-outs that look alike come from different tables or passages of the source.

Assays:
Format in all cases: cell-based
[1] = test system: mixed cortical cultures from mouse brain; assay: NMDA-induced cell toxicity in mixed cortical (neuronal-glial) cultures, LDH release (Example 1)
Procedure: Graph B represents the dose-dependent effect of (−)-huperzine A alone (unfilled circles) and in the presence (filled circles) of 10 μM (−)-nicotine. Toxicity was induced by a 10 minute treatment with 75 μM NMDA in the absence or presence of the indicated drugs.
In a first experiment, four samples each containing neuronal-glial cultures from mouse cerebral cortical cultures and a different concentration of (−)-nicotine (ranging from 0 to 100 μM) were treated for 10 minutes with 75 μM of NMDA (commercially available, for example, from Sigma Chemical Co., St. Louis, Mo.) to induce cell death. The cultures were prepared from 15-day-old fetal Swiss-Webster mice, as described in Bruno et al., 1998 Neuroscience 85:751-7 (hereinafter “Bruno et al.”), incorporated herein by reference. Neuronal cells were plated in 96-well plates on a layer of confluent glial cells at a density of 200,000 cells/well in EMEM medium containing 5% fetal bovine serum and 5% horse serum. Then the NMDA was removed replacing the medium with fresh serum-free culture medium and cell death was assessed for each sample by measuring the amount of lactate dehydrogenase (“LDH”) released into the medium according to the procedure described in Bruno et al. The data are summarized in FIG. 1, Graph A, as lines connecting the values (represented by unfilled squares) of % of NMDA toxicity (i.e., % cell death) at the corresponding concentration of (−)-nicotine in μM.
In a second experiment, six samples each containing neuronal-glial cultures from mouse brain and a different concentration of (−)-huperzine A (ranging from 0 to 10 μM) were treated with 75 μM of NMDA, using the above-described procedure. Then cell death was assessed for each sample using the procedure described above. The data are summarized in FIG. 1, Graph B, as lines connecting the values (represented by unfilled circles) of % of NMDA toxicity at the corresponding concentration of (−)-huperzine A in μM.
In a third experiment, six samples each containing neuronal-glial cultures from mouse brain, a different concentration of (−)-huperzine A (ranging from 0 to 10 μM), and a fixed concentration of 10 μM of (−)-nicotine were treated with 75 μM NMDA, using the procedure described above. Then cell death was assessed for each sample as above. The data are summarized in FIG. 1, Graph B, as lines connecting the values (represented by black-filled circles) of % of NMDA toxicity at the corresponding μM-concentration of(−)-huperzine A.

[2] = test system: cultures of granule neurons prepared from mouse cerebellum; assay: β-amyloid-peptide-induced cell toxicity in cerebellar granule neurons, LDH release (Example 2)
Procedure: Toxicity was induced by a 48 hour treatment with 25 μM β-amyloid peptide in the absence or presence of the indicated drugs.
In a first experiment, four samples each containing cultures of granule neurons prepared from mouse cerebellum and a different concentration of (−)-nicotine (ranging from 0 to 100 μM) were treated for 48 hours with 25 μM β-amyloid peptide (“AP”) (commercially available, for example, from Bachem, Inc., Torrance, Calif.) to induce cell death, according to the procedure described in Copani et al., 1995 Mol Pharmacol 47:890-7 (hereinafter “Copani et al.”).
Then cell death was assessed by measuring the amount of LDH released into the medium according to the procedure described in Bruno et al. The data are summarized in FIG. 2, Graph A, as lines connecting the values (represented by unfilled squares) of % of β-amyloid-peptide-induced toxicity (i.e., % cell death) at the corresponding concentration of nicotine in μM.
In a second experiment, four samples each containing cultures of granule neurons prepared from mouse cerebellum and a different concentration of (−)-huperzine A (ranging from 0 to 10 μM), were treated for 48 hours with 25 μM AP, (25-35 fragment) according to the above-described procedure. Then cell death was assessed as described above. The data are summarized in FIG. 2, Graph B, as lines connecting the values (represented by unfilled circles) of % of β-amyloid-peptide-induced toxicity at a particular concentration of (−)-huperzine A in μM.
In a third experiment, 4 samples each containing cultures of granule neurons prepared from mouse cerebellum, a different concentrations of (−)-huperzine A (ranging from 0 to 10 μM), and a fixed concentration of 10 μM of (−)-nicotine were treated for 48 hours with 25 μM AP using the procedure described above. Then cell death was assessed as above. The data are summarized in FIG. 2, Graph B, as lines connecting the values (represented by black-filled circles) of % of β-amyloid-peptide-induced toxicity at a particular μM-concentration of (−)-huperzine A.

[3] = test system: neuronal-glial cultures from mouse cerebral cortical cultures; assay: NMDA-induced cell toxicity in mixed cortical cultures, low drug concentrations, LDH release (Example 3)
[4] = drug alone, 75 μM NMDA for 10 minutes, FIG. 1
[5] = drug alone, nicotine 0-100 μM, huperzine A 0-10 μM
[6] = drug alone, 25 μM β-amyloid peptide for 48 hours, FIG. 2

Row | SMILES | cell death (% of NMDA toxicity) at maximal neuroprotection [1, 4] [%] | maximal level of neuroprotection [1, 4] | NMDA-induced cell death [1, 5] | cell death (% of β-amyloid-peptide-induced toxicity) at maximal neuroprotection [2, 6] [%] | maximal level of neuroprotection [2, 6] | toxicity induced by 25 μM AP [2, 5] | neuroprotective effect ([3]; (−)-huperzine A alone, 1-1000 nM, 100 μM NMDA for 10 minutes) | NMDA-induced cell death [1] | cell death (% of NMDA toxicity) at maximal neuroprotection [1] [%] | maximal level of neuroprotection [1] | neuroprotection [1] | cell death (% of β-amyloid-peptide-induced toxicity) at maximal neuroprotection [2] [%] | maximal level of neuroprotection [2] | neuroprotection [2] | toxicity induced by 25 μM AP [2] | neuroprotective effect [3]
1 | C/C=C1\[C@H]2C=C(C)C[C@]1(N)c1ccc(=O)[nH]c1C2 [(−)-huperzine A] | 55 | about 45% | decreased in a dose-dependent manner | 70 | about 30% | decreased in a dose-dependent manner | no significant neuroprotective effects |  |  |  |  |  |  |  |  | 
2 | CN1CCCC1c1cccnc1 (single isomer, unassigned; (-)) [(−)-nicotine] |  |  |  |  |  |  |  | decreased in a dose-dependent manner | 45 | about 55% | about 40% | 45 | about 55% | about 20% | decreased in a dose-dependent manner | little effect
